The values below come from PubChem BioAssay (NCI).

Some test systems named below: DLD-1 colon; DMS 114 small cell lung; DMS 273 small cell lung; HOP-18 NSCLC; M19-MEL melanoma.
Common to all, as to assay: growth of human tumour cells (NCI), 48 h

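Following 48 hours of exposure in 96-well plates, responses at five concentrations were used to interpolate endpoints linearly. At the TGI there is no net growth.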 Some results are limits rather than exact numbers.

Take `CC1S(=O)(=O)OCCOS1(=O)=O`: the TGI in the experiment with DLD-1 colon, with DMS 114 small cell lung, with DMS 273 small cell lung, in the experiment on HOP-18 NSCLC and with M19-MEL melanoma was greater than 100 µM each time.

As to `COc1cccc(C(=O)C2C(=O)N(C)CCc3ccccc32)c1OC` (stereo not given), the TGI in the experiment with DLD-1 colon, in the experiment on DMS 114 small cell lung, in the experiment with DMS 273 small cell lung, in the experiment on HOP-18 NSCLC and in the experiment on M19-MEL melanoma was greater than 100 µM each time.

For `CCCCCCCCCCCCCCCC(=O)OCC1OC(n2c(O)c(N=NC(N)=S)c3ccc([N+](=O)[O-])cc32)C(OC(C)=O)C1OC(C)=O` (stereo not given), the TGI in the experiment with DLD-1 colon, with DMS 114 small cell lung, in the experiment with DMS 273 small cell lung, with HOP-18 NSCLC and in the experiment with M19-MEL melanoma was greater than 100 µM in each case.

As to `COc1ccc2oc3cccc(NCCN(C)C)c3c(=O)c2c1`, the TGI is 27.5 µM in the experiment with DLD-1 colon; 27 µM in the experiment with DMS 114 small cell lung; 25.3 µM in the experiment with DMS 273 small cell lung; 24 µM in the experiment with HOP-18 NSCLC; 29.9 µM in the experiment on M19-MEL melanoma.

As for `CC(=O)Oc1ccc(O)c(O)c1C/C=C(\C)CC/C=C(\C)CC/C=C(\C)CCC=C(C)C`, the TGI came out at 1.41 µM in the experiment with DLD-1 colon; 1.29 µM in the experiment on DMS 114 small cell lung; 0.817 µM in the experiment with DMS 273 small cell lung; 0.879 µM in the experiment on HOP-18 NSCLC; 1.81 µM in the experiment with M19-MEL melanoma.

With `COc1ccc(C2S/C(=C\c3ccc(O)cc3)C(=O)N2NC(=O)Cc2ccccc2)cc1` (stereo not given), the TGI in the experiment with DLD-1 colon, in the experiment with DMS 114 small cell lung, in the experiment on DMS 273 small cell lung, in the experiment with HOP-18 NSCLC and in the experiment on M19-MEL melanoma was greater than 100 µM each time.

Turning to `COc1cccc(C2c3cc4c(cc3OC(O)(CO)C2C(=O)O)OCO4)c1` (stereo not given) (tested in a mixture with another compound), the TGI in the experiment on DLD-1 colon, in the experiment with DMS 114 small cell lung, in the experiment on DMS 273 small cell lung, in the experiment on HOP-18 NSCLC and in the experiment with M19-MEL melanoma was greater than 100 µM in each case.

Take `S=c1[nH]c2ccc(Br)cc2c(=S)n1-c1ccccc1`: the TGI was greater than 100 µM in the experiment with DLD-1 colon; 54.3 µM in the experiment with DMS 114 small cell lung; 60.7 µM in the experiment with DMS 273 small cell lung; 85.4 µM in the experiment on HOP-18 NSCLC; 60.7 µM in the experiment on M19-MEL melanoma.

In the case of `COc1ccc(NC(=O)c2cc(OC)c(OC)c(OC)c2)cc1`, the TGI with DLD-1 colon, with DMS 114 small cell lung, in the experiment with DMS 273 small cell lung, in the experiment with HOP-18 NSCLC and in the experiment with M19-MEL melanoma was greater than 100 µM in each case.
